We go through ten compounds from patent publication US6121278A, “Di-n-heterocyclic compounds, methods, and compositions for inhibiting parp activity” (Guilford Pharmaceuticals, Inc., priority 1998, dated 2000).

Entries after “also recorded” stand apart in the source; their conditions may differ. Some results are limits rather than exact numbers.

The subject of data set [1] is cell viability, glucose metabolism, and DNA synthesis. To be noted: cited from earlier work.
Data set [2] relates to PARP. To be noted: cited from earlier work.
Data set [3] deals with tumor cells. The note with it: cited from earlier work.
The conditions of data set [4]: dose of acetanilid given to a person; cited from earlier work.
Data set [5] has as its target T1, purified recombinant human PARP (Homo sapiens, UniProt P09874).
T1 construct: purchased Trevigen (Gaithersburg, Md.)
Description: PARP enzyme assay, [3H]NAD incorporation. The data set is classed as biochemical. To be noted: 25° C., 15 minutes; PARP inhibition; read-out: Approximate IC50's.
Description: The reaction was initiated by incubating the mixture at 25° C. After 15 minutes' incubation, the reaction was terminated by adding 500 microliters of ice cold 20% (w/v) trichloroacetic acid. The precipitate formed was transferred onto a glass fiber filter (Packard Unifilter-GF/B) and washed three times with ethanol. After the filter was dried, the radioactivity was determined by scintillation counting.

Data set [6] deals with endotoxic shock. To be noted: in vivo; cited from earlier work.
The nature of data set [7]: Arterial blood gases, pH and MABP in focal cerebral ischemia rats. The data set is classed as in vivo, male Long-Evans rats. The note with it: for MABP Ischemia: during occlusion; for MABP Steady State: just prior to occlusion. On the procedure:
(§1) Focal cerebral ischemia was produced by cauterization of the right distal MCA (middle cerebral artery) with bilateral temporary common carotid artery occlusion in male Long-Evans rats for 90 minutes. All procedures performed on the animals were approved by the University Institutional Animal Care and Use Committee of the University of Pennsylvania. A total of 42 rats (weights: 230-340 g) obtained from Charles River were used in this study. The animals fasted overnight with free access to water prior to the surgical procedure.
(§2) Two hours prior to MCA occlusion, varying amounts (control, n=14; 5 mg/kg, n=7; 10 mg/kg, n=7; 20 mg/kg, n=7; and 40 mg/kg, n=7) of the compound, 3,4-dihydro-5-[4-(1-piperidinyl)-butoxy]-1(2H)-isoquinolinone ("DPQ") were dissolved in dimethyl sulfoxide (DMSO) using a sonicator. A volume of 1.28 ml/kg of the resulting solution was injected intraperitoneally into fourteen rats.
(§3) The rats were then anesthetized with halothane (4% for induction and 0.8%-1.2% for the surgical procedure) in a mixture of 70% nitrous oxide and 30% oxygen. The body temperature was monitored by a rectal probe and maintained at 37.5±0.5° C. with a heating blanket regulated by a homeothermic blanket control unit (Harvard Apparatus Limited, Kent, U.K.). A catheter (PE-50) was placed into the tail artery, and arterial pressure was continuously monitored and recorded on a Grass polygraph recorder (Model 7D, Grass Instruments, Quincy, Mass.). Samples for blood gas analysis (arterial pH, PaO2 and PaCO2) were also taken from the tail artery catheter and measured with a blood gas analyzer (ABL 30, Radiometer, Copenhagen, Denmark). Arterial blood samples were obtained 30 minutes after MCA occlusion.
A "steady state" MABP was taken following completion of the surgical reparation, just prior to occlusion; an "ischemia" MABP was taken as the average MABP during occlusion.

The subject of data set [8] is focal cerebral ischemia. The data set can be described thus: Focal cerebral ischemia (distal MCA cauterization with bilateral temporary CCA occlusion), infarct. The data set is classed as in vivo, male Long-Evans rats. To be noted: for cross-sectional infarct area curve (in words): FIG. 1. On the procedure: as §1, §2, §3
The head of the animal was positioned in a stereotaxic frame, and a right parietal incision between the right lateral canthus and the external auditory meatus was made. Using a dental drill constantly cooled with saline, a 3 mm burr hole was prepared over the cortex supplied by the right MCA, 4 mm lateral to the sagittal suture and 5 mm caudal to the coronal suture. The dura mater and a thin inner bone layer were kept, care being taken to position the probe over a tissue area devoid of large blood vessels. The flow probe (tip diameter of 1 mm, fiber separation of 0.25 mm) was lowered to the bottom of the cranial burr hole using a micromanipulator. The probe was held stationary by a probe holder secured to the skull with dental cement. The microvascular blood flow in the right parietal cortex was continuously monitored with a laser Doppler flowmeter (FloLab, Moor, Devon, U.K., and Periflux 4001, Perimed, Stockholm, Sweden).
Focal cerebral ischemia was produced by cauterization of the distal portion of the right MCA with bilateral temporary common carotid artery (CCA) occlusion by the procedure of Chen et al., "A Model of Focal Ischemic Stroke in the Rat: Reproducible Extensive Cortical Infarction", Stroke 17:738-43 (1986) and/or Liu et al., "Polyethylene Glycol-conjugated Superoxide Dismutase and Catalase Reduce Ischemic Brain Injury", Am. J. Physiol. 256:H589-93 (1989), both of which are hereby incorporated by reference.
Specifically, bilateral CCA's were isolated, and loops made from polyethylene (PE-10) catheter were carefully passed around the CCA's for later remote occlusion. […]

Data set [9] deals with heart ischemia and reperfusion. The note with it: cited from earlier work.
Data set [10] concerns human fibroblast cells (W138 or BJ). The data set can be described thus: Extending proliferative capacity and lifespan of cells. The data set is classed as cell-based. On the procedure: At the time of subdivision, the media is aspirated, and the cells rinsed with phosphate buffer saline (PBS) and then trypsinized. The cells are counted with a Coulter counter and plated at a density of 10^5 cells per cm^2 in 6-well tissue culture plates in DMEM/199 medium supplemented with 10% bovine calf serum and varying amounts (0.10 μM, and 1 mM: from a 100× stock solution in DMEM/M199 medium) of a PARP inhibitor of Formula I as disclosed herein. This process is repeated every 7 days until the cell appear to stop dividing. The untreated (control) cells reach senescence and stop dividing after about 40 days in culture. […] The cells treated with 1 mM 3-AB will still divide after 60 days in culture.

The subject of data set [11] is colitis. To be noted: rat, in vivo; cited from earlier work.
Data set [12] deals with septic shock mortality. The data set can be described thus: Septic shock assay (LPS plus galactosamine). The data set is classed as in vivo, C57/BL male mice. The note with it: 60, 20, 6 and 2 mg/kg daily IP for three days; LPS plus galactosamine challenge. On the procedure: Groups of 10 C57/BL male mice weighing 18 to 20 g were administered a test compound, 1-carboxynaphthalene-1-carboxamide at the doses of 60, 20, 6 and 2 mg/kg, daily, by intraperitoneal (IP) injection for three consecutive days. Each animal was first challenged with lipopolysaccharide (LPS, from E. coli, LD100 of […] IV) plus galactosamine (20 mg/animal IV). The first dose of test compound in a suitable vehicle was given 30 minutes after challenge, and the second and third doses were given 24 hours later on day 2 and day 3 respectively, with only the surviving animals receiving the second or third dose of the test compound. Mortality was recorded every 12 hours after challenge for the three-day testing period. 1-Carboxy-naphthalene-1-carboxamide provided a protection against mortality from septic shock of about 40%.

T1 sequence (P09874 whole entry): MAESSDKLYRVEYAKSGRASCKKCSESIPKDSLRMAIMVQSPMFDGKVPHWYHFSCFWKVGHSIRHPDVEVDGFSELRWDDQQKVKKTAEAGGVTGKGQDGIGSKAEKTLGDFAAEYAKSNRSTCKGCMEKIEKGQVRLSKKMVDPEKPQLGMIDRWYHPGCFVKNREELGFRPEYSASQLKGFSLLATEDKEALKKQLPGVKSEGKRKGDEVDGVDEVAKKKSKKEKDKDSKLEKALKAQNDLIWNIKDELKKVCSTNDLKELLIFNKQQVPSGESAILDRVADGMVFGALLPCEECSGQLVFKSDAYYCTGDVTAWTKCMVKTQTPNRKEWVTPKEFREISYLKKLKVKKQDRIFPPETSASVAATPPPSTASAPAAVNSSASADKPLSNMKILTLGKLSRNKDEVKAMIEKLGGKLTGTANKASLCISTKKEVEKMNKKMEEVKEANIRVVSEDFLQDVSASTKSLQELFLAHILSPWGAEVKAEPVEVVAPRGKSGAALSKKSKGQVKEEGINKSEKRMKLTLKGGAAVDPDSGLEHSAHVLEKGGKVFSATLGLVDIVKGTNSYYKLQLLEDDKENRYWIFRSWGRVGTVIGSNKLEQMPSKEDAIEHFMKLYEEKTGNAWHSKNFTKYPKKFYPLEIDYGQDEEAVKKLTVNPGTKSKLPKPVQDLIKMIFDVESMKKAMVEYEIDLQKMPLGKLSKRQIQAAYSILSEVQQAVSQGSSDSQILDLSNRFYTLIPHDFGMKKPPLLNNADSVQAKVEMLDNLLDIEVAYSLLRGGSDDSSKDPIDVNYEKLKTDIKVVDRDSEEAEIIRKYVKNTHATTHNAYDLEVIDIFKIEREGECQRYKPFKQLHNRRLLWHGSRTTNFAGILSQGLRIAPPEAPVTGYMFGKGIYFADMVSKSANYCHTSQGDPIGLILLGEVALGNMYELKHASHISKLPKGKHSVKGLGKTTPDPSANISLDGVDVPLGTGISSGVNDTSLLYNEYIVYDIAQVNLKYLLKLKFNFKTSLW

Consider `NC(=O)c1ccccc1` [benzamide], for which the “effect on cell viability, glucose metabolism, and DNA synthesis (in words)” value in data set [1] was “shown to affect cell viability, glucose metabolism, and DNA synthesis”.
Consider `O=c1[nH]c2ccccc2c2ccccc12` [6(5H)-Phenanthridinone], for which the “PARP activity (in words)” value in [2] is listed as “inhibition of PARP activity”. The “proliferation of tumor cells (in words)” value in data set [3] was “reduced proliferation of tumor cells”. The “synergy with an alkylating drug (in words)” value in [3] (co-treatment with an alkylating drug) is given as “a marked synergistic effect when tumor cells are co-treated with an alkylating drug”.
As to `CC(=O)Nc1ccc(O)cc1` [acetaminophen, p-hydroxyacetanilid], the “plasma component / peak (in words)” value in data set [4] was “In the second hour, as the acetanilid level falls, the metabolite acetaminophen concentration reaches a peak”.
With `Nc1ccc2c(c1)oc(=O)c1ccccc12` [PARP Inhibitor (line 8)], the IC50 (usually the concentration at which inhibition is half-maximal) in [5] is ~4 µM.
Regarding `NC(=O)c1cccnc1` [nicotinamide], the “vascular failure in endotoxic shock (in words)” value in data set [6] is “protects against delayed, NO-mediated vascular failure in endotoxic shock”.
As for `O=C1NCCc2c(OCCCCN3CCCCC3)cccc21` [DPQ, 3,4-dihydro-5-[4-(1-piperidinyl)-butoxy]-1(2H)-isoquinolinone], the PaCO2 in data set [7] (5 mg/kg-treated group (n = 7)) stood at 38.0 ± 2.8 mm Hg; in data set [7] (10 mg/kg-treated group (n = 7)) it was 39.3 ± 5.2 mm Hg; in data set [7] (20 mg/kg-treated group (n = 7)) it was 41.3 ± 2.8 mm Hg; in data set [7] (40 mg/kg-treated group (n = 7)), 39.5 ± 4.7 mm Hg. Besides, the PaO2 in data set [7] (5 mg/kg-treated group (n = 7)) was 126 ± 20 mm Hg; in data set [7] (10 mg/kg-treated group (n = 7)) it was 125 ± 16 mm Hg; in data set [7] (20 mg/kg-treated group (n = 7)) it was 122 ± 14 mm Hg; in data set [7] (40 mg/kg-treated group (n = 7)), 137 ± 17 mm Hg. The “arterial pH” value is on record as 7.36 ± 0.02 in data set [7] (5 mg/kg-treated group (n = 7)), 7.34 ± 0.03 in [7] (10 mg/kg-treated group (n = 7)), 7.35 ± 0.23 in data set [7] (20 mg/kg-treated group (n = 7)) and 7.33 ± 0.24 in [7] (40 mg/kg-treated group (n = 7)). Moreover, the “MABP Ischemia” value in data set [7] (5 mg/kg-treated group (n = 7), ** p < 0.01 vs steady state) was 91 mm Hg; in data set [7] (10 mg/kg-treated group (n = 7), * p < 0.05 vs steady state), 90 mm Hg; in data set [7] (20 mg/kg-treated group (n = 7), ** p < 0.01 vs steady state), 91 mm Hg; in [7] (40 mg/kg-treated group (n = 7), * p < 0.05 vs steady state), 88 mm Hg. In addition, the “MABP Steady State” value in [7] (5 mg/kg-treated group (n = 7)) is recorded as 78 ± 5 mm Hg; in data set [7] (10 mg/kg-treated group (n = 7)), 80 ± 9 mm Hg; in [7] (20 mg/kg-treated group (n = 7)) it was 79 ± 10 mm Hg; in [7] (40 mg/kg-treated group (n = 7)) it was 78 ± 4 mm Hg. For the same compound, the “cross-sectional infarct area curve (in words)” value is “fell approximately halfway between the control and the 10 mg/kg curves” in data set [8] (5 mg/kg i.p.); “fell approximately halfway between the control and the 10 mg/kg curves” in [8] (20 mg/kg i.p.); “close to the control” in data set [8] (40 mg/kg i.p.). Further, the “infarct volume versus control (in words)” value in data set [8] (40 mg/kg i.p.) was “no significant difference between the control and the 40 mg/kg-treated group; also recorded: less neuroprotective”. In addition, the “reduction in infarct volume overall (in words)” value in [8] (overall, in vivo administration) was “substantial reduction in infarct volume”.
As for `NC(=O)c1cccc(N)c1` [3-aminobenzamide], in data set [9] (10 mg/kg single injection, one minute before occlusion or reperfusion), the “reduction in infarct size in the heart” value is reported as 32-42%. Also, the “effect on lifespan of cells (in words)” value is given as “little or no effect” in data set [10] (10 μM) and “appears lengthen the lifespan of the cells” in data set [10] (100 μM). In addition, in data set [10] (1 mM), the “effect on lifespan and proliferative capacity of cells (in words)” value is “dramatically increases the lifespan and proliferative capacity of the cells”. Besides, the “time in culture after which cells still divide” value in [10] (1 mM, untreated cells stop after about 40 days) is > 60 days. In addition, in data set [1], the “effect on cell viability, glucose metabolism, and DNA synthesis (in words)” value was “shown to affect cell viability, glucose metabolism, and DNA synthesis”. In data set [11], the “colitis outcome (in words)” value is “reduced the inflammatory response and restored the morphology and the energetic status of the distal colon”.
`CC(=O)Nc1ccccc1` [acetanilid, acetanilide]: the “plasma component / peak (in words)” value in data set [4] is given as “During the first hour, acetanilid is the principal plasma component”.
As for `Oc1cccc2c(O)nccc12` [1,5-dihydroxyisoquinoline], the “reduction in infarct size” value in data set [9] (1 mg/kg single injection) is 38-48%.
Take 1-carboxynaphthalene-1-carboxamide: in [12], the “protection against mortality from septic shock” value is given as “about 40%”.
